This passage reports inhibition results from paper PMC11576293, “New series of 4,6-diaryl pyrimidines: facile synthesis and antiproliferative activity as dual EGFR/VEGFR-2 inhibitors” (Frontiers in Chemistry, 2024).

The subject of one experiment is U251. In words: NCI-60 single-dose screen. It is filed as cell-based. To be noted: Homo sapiens, U-251, single dose 10 µM, '-' = no inhibition, read-out: % Growth Inhibition. The method, boiled down: (§1)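 Single concentration (10 μM) per compound, assayed by the NCI DTP against its 60-line panel covering leukemia, lung, colon, CNS, melanoma, ovarian, renal, prostate and breast cancers.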
Consider `COc1ccc(-c2cc(-c3ccc(Cl)cc3)nc(SC(C)C)n2)cc1` [Compound 12, 4-(4-Chlorophenyl)-2-(isopropylthio)-6-(4-methoxyphenyl)pyrimidine], for which the inhibition at 10 µM came out at 7.59%.

The test system of another experiment is TK-10. In words: NCI-60 single-dose screen. The experiment is classed as cell-based. To be noted: Homo sapiens, single dose 10 µM, '-' = no inhibition, read-out: % Growth Inhibition. The method, boiled down: as §1
In the case of `COc1ccc(-c2cc(-c3ccc(Cl)cc3)nc(SC(C)C)n2)cc1` [Compound 12, 4-(4-Chlorophenyl)-2-(isopropylthio)-6-(4-methoxyphenyl)pyrimidine], the inhibition at 10 µM is below 0%.

In another experiment the test system is MCF7. Description: NCI-60 single-dose screen. To be noted: Homo sapiens, single dose 10 µM, '-' = no inhibition, read-out: % Growth Inhibition. It is filed as cell-based. An outline of the steps: as §1
For `COc1ccc(-c2cc(-c3ccc(Cl)cc3)nc(SC(C)C)n2)cc1` [Compound 12, 4-(4-Chlorophenyl)-2-(isopropylthio)-6-(4-methoxyphenyl)pyrimidine], the inhibition at 10 µM stood at 28.8%.

The test system of another experiment is HT29. Description: NCI-60 single-dose screen. It is filed as cell-based. To be noted: Homo sapiens, HT-29, single dose 10 µM, '-' = no inhibition, read-out: % Growth Inhibition. An outline of the steps: as §1
As to `COc1ccc(-c2cc(-c3ccc(Cl)cc3)nc(SC(C)C)n2)cc1` [Compound 12, 4-(4-Chlorophenyl)-2-(isopropylthio)-6-(4-methoxyphenyl)pyrimidine], the inhibition at 10 µM is 29.2%.

The test system of a further experiment is BT-549. In words: NCI-60 single-dose screen. It is filed as cell-based. The following applies: Homo sapiens, single dose 10 µM, '-' = no inhibition, read-out: % Growth Inhibition. An outline of the steps: as §1
`COc1ccc(-c2cc(-c3ccc(Cl)cc3)nc(SC(C)C)n2)cc1` [Compound 12, 4-(4-Chlorophenyl)-2-(isopropylthio)-6-(4-methoxyphenyl)pyrimidine]: the inhibition at 10 µM worked out at 2.74%.

For the next experiment, the system named is OVCAR-8. In words: NCI-60 single-dose screen. To be noted: Homo sapiens, single dose 10 µM, '-' = no inhibition, read-out: % Growth Inhibition. It is filed as cell-based. The method, boiled down: as §1
Consider `COc1ccc(-c2cc(-c3ccc(Cl)cc3)nc(SC(C)C)n2)cc1` [Compound 12, 4-(4-Chlorophenyl)-2-(isopropylthio)-6-(4-methoxyphenyl)pyrimidine], for which the inhibition at 10 µM turned out to be 11.3%.

The next experiment concerns NCI-H460. Description: NCI-60 single-dose screen. The experiment is classed as cell-based. The following applies: Homo sapiens, single dose 10 µM, '-' = no inhibition, read-out: % Growth Inhibition. The method, boiled down: as §1
Regarding `COc1ccc(-c2cc(-c3ccc(Cl)cc3)nc(SC(C)C)n2)cc1` [Compound 12, 4-(4-Chlorophenyl)-2-(isopropylthio)-6-(4-methoxyphenyl)pyrimidine], the inhibition at 10 µM worked out at 7.21%.

In another experiment the test system is HL-60(TB). In words: NCI-60 single-dose screen. To be noted: Homo sapiens, single dose 10 µM, '-' = no inhibition, read-out: % Growth Inhibition. It is filed as cell-based.
Turning to `COc1ccc(-c2cc(-c3ccc(Cl)cc3)nc(SC(C)C)n2)cc1` [Compound 12, 4-(4-Chlorophenyl)-2-(isopropylthio)-6-(4-methoxyphenyl)pyrimidine], the inhibition at 10 µM stood at 32.6%.

For a further experiment, the system named is PC-3. Description: NCI-60 single-dose screen. It is filed as cell-based. The following applies: Homo sapiens, single dose 10 µM, '-' = no inhibition, read-out: % Growth Inhibition. The method, boiled down:
as §1
With `COc1ccc(-c2cc(-c3ccc(Cl)cc3)nc(SC(C)C)n2)cc1` [Compound 12, 4-(4-Chlorophenyl)-2-(isopropylthio)-6-(4-methoxyphenyl)pyrimidine], the inhibition at 10 µM came out at 2.88%.

A further experiment deals with SNB-75. In words: NCI-60 single-dose screen. It is filed as cell-based. To be noted: Homo sapiens, single dose 10 µM, '-' = no inhibition, read-out: % Growth Inhibition. The method, boiled down:
as §1
Consider `COc1ccc(-c2cc(-c3ccc(Cl)cc3)nc(SC(C)C)n2)cc1` [Compound 12, 4-(4-Chlorophenyl)-2-(isopropylthio)-6-(4-methoxyphenyl)pyrimidine], for which the inhibition at 10 µM is below 0%.

The next experiment relates to UACC-62. In words: NCI-60 single-dose screen. The experiment is classed as cell-based. The following applies: Homo sapiens, single dose 10 µM, '-' = no inhibition, read-out: % Growth Inhibition. The method, boiled down:
as §1
For `COc1ccc(-c2cc(-c3ccc(Cl)cc3)nc(SC(C)C)n2)cc1` [Compound 12, 4-(4-Chlorophenyl)-2-(isopropylthio)-6-(4-methoxyphenyl)pyrimidine], the inhibition at 10 µM was 19.1%.

The subject of the next experiment is MALME-3M. Description: NCI-60 single-dose screen. The experiment is classed as cell-based. To be noted: Homo sapiens, single dose 10 µM, '-' = no inhibition, read-out: % Growth Inhibition. The method, boiled down: as §1
As for `COc1ccc(-c2cc(-c3ccc(Cl)cc3)nc(SC(C)C)n2)cc1` [Compound 12, 4-(4-Chlorophenyl)-2-(isopropylthio)-6-(4-methoxyphenyl)pyrimidine], the inhibition at 10 µM was determined as 1.51%.

The next experiment deals with HCC-2998. Description: NCI-60 single-dose screen. It is filed as cell-based. To be noted: Homo sapiens, single dose 10 µM, '-' = no inhibition, read-out: % Growth Inhibition. The method, boiled down: as §1
As for `COc1ccc(-c2cc(-c3ccc(Cl)cc3)nc(SC(C)C)n2)cc1` [Compound 12, 4-(4-Chlorophenyl)-2-(isopropylthio)-6-(4-methoxyphenyl)pyrimidine], the inhibition at 10 µM is 1.06%.

The next experiment concerns NCI-H23. In words: NCI-60 single-dose screen. The following applies: Homo sapiens, single dose 10 µM, '-' = no inhibition, read-out: % Growth Inhibition. The experiment is classed as cell-based. An outline of the steps:
as §1
As to `COc1ccc(-c2cc(-c3ccc(Cl)cc3)nc(SC(C)C)n2)cc1` [Compound 12, 4-(4-Chlorophenyl)-2-(isopropylthio)-6-(4-methoxyphenyl)pyrimidine], the inhibition at 10 µM worked out at 10.7%.

Another experiment deals with RXF 393. Description: NCI-60 single-dose screen. It is filed as cell-based. To be noted: Homo sapiens, single dose 10 µM, '-' = no inhibition, read-out: % Growth Inhibition. The method, boiled down:
as §1
In the case of `COc1ccc(-c2cc(-c3ccc(Cl)cc3)nc(SC(C)C)n2)cc1` [Compound 12, 4-(4-Chlorophenyl)-2-(isopropylthio)-6-(4-methoxyphenyl)pyrimidine], the inhibition at 10 µM came out at 26.4%.

The subject of another experiment is SK-MEL-5. In words: NCI-60 single-dose screen. It is filed as cell-based. To be noted: Homo sapiens, single dose 10 µM, '-' = no inhibition, read-out: % Growth Inhibition. The method, boiled down: as §1
Take `COc1ccc(-c2cc(-c3ccc(Cl)cc3)nc(SC(C)C)n2)cc1` [Compound 12, 4-(4-Chlorophenyl)-2-(isopropylthio)-6-(4-methoxyphenyl)pyrimidine]: the inhibition at 10 µM was determined as 17.9%.

The next experiment relates to SK-MEL-28. Description: NCI-60 single-dose screen. The experiment is classed as cell-based. To be noted: Homo sapiens, single dose 10 µM, '-' = no inhibition, read-out: % Growth Inhibition. The method, boiled down: as §1
As to `COc1ccc(-c2cc(-c3ccc(Cl)cc3)nc(SC(C)C)n2)cc1` [Compound 12, 4-(4-Chlorophenyl)-2-(isopropylthio)-6-(4-methoxyphenyl)pyrimidine], the inhibition at 10 µM is below 0%.

A further experiment concerns SNB-19. Description: NCI-60 single-dose screen. The experiment is classed as cell-based. The following applies: Homo sapiens, single dose 10 µM, '-' = no inhibition, read-out: % Growth Inhibition. The method, boiled down:
as §1
Take `COc1ccc(-c2cc(-c3ccc(Cl)cc3)nc(SC(C)C)n2)cc1` [Compound 12, 4-(4-Chlorophenyl)-2-(isopropylthio)-6-(4-methoxyphenyl)pyrimidine]: the inhibition at 10 µM came out at 1.49%.

The subject of a further experiment is M14. Description: NCI-60 single-dose screen. The experiment is classed as cell-based. To be noted: Homo sapiens, single dose 10 µM, '-' = no inhibition, read-out: % Growth Inhibition. The method, boiled down:
as §1
Consider `COc1ccc(-c2cc(-c3ccc(Cl)cc3)nc(SC(C)C)n2)cc1` [Compound 12, 4-(4-Chlorophenyl)-2-(isopropylthio)-6-(4-methoxyphenyl)pyrimidine], for which the inhibition at 10 µM is 8.46%.

Another experiment deals with UO-31. In words: NCI-60 single-dose screen. The experiment is classed as cell-based. To be noted: Homo sapiens, single dose 10 µM, '-' = no inhibition, read-out: % Growth Inhibition. An outline of the steps: as §1
Take `COc1ccc(-c2cc(-c3ccc(Cl)cc3)nc(SC(C)C)n2)cc1` [Compound 12, 4-(4-Chlorophenyl)-2-(isopropylthio)-6-(4-methoxyphenyl)pyrimidine]: the inhibition at 10 µM is 15.7%.

For a further experiment, the system named is COLO 205. Description: NCI-60 single-dose screen. It is filed as cell-based. To be noted: Homo sapiens, single dose 10 µM, '-' = no inhibition, read-out: % Growth Inhibition. The method, boiled down: as §1
Turning to `COc1ccc(-c2cc(-c3ccc(Cl)cc3)nc(SC(C)C)n2)cc1` [Compound 12, 4-(4-Chlorophenyl)-2-(isopropylthio)-6-(4-methoxyphenyl)pyrimidine], the inhibition at 10 µM was below 0%.

The next experiment relates to NCI-H322M. Description: NCI-60 single-dose screen. The experiment is classed as cell-based. The following applies: Homo sapiens, single dose 10 µM, '-' = no inhibition, read-out: % Growth Inhibition. The method, boiled down:
as §1
In the case of `COc1ccc(-c2cc(-c3ccc(Cl)cc3)nc(SC(C)C)n2)cc1` [Compound 12, 4-(4-Chlorophenyl)-2-(isopropylthio)-6-(4-methoxyphenyl)pyrimidine], the inhibition at 10 µM is 4.22%.

The next experiment relates to SK-MEL-2. In words: NCI-60 single-dose screen. The following applies: Homo sapiens, single dose 10 µM, '-' = no inhibition, read-out: % Growth Inhibition. The experiment is classed as cell-based. An outline of the steps: as §1
For the compound `COc1ccc(-c2cc(-c3ccc(Cl)cc3)nc(SC(C)C)n2)cc1` [Compound 12, 4-(4-Chlorophenyl)-2-(isopropylthio)-6-(4-methoxyphenyl)pyrimidine], the inhibition at 10 µM was found to be 19.5%.
